Literature values, collected in US8637296B2, “Lactobacillus helveticus strains for producing hypotensive peptides” (Nestec S.A., priority 2008, dated 2014).

Biological target: angiotensin converting enzyme (ACE) (Homo sapiens, UniProt P12821)
Sequence (P12821 30-1306, species assumed): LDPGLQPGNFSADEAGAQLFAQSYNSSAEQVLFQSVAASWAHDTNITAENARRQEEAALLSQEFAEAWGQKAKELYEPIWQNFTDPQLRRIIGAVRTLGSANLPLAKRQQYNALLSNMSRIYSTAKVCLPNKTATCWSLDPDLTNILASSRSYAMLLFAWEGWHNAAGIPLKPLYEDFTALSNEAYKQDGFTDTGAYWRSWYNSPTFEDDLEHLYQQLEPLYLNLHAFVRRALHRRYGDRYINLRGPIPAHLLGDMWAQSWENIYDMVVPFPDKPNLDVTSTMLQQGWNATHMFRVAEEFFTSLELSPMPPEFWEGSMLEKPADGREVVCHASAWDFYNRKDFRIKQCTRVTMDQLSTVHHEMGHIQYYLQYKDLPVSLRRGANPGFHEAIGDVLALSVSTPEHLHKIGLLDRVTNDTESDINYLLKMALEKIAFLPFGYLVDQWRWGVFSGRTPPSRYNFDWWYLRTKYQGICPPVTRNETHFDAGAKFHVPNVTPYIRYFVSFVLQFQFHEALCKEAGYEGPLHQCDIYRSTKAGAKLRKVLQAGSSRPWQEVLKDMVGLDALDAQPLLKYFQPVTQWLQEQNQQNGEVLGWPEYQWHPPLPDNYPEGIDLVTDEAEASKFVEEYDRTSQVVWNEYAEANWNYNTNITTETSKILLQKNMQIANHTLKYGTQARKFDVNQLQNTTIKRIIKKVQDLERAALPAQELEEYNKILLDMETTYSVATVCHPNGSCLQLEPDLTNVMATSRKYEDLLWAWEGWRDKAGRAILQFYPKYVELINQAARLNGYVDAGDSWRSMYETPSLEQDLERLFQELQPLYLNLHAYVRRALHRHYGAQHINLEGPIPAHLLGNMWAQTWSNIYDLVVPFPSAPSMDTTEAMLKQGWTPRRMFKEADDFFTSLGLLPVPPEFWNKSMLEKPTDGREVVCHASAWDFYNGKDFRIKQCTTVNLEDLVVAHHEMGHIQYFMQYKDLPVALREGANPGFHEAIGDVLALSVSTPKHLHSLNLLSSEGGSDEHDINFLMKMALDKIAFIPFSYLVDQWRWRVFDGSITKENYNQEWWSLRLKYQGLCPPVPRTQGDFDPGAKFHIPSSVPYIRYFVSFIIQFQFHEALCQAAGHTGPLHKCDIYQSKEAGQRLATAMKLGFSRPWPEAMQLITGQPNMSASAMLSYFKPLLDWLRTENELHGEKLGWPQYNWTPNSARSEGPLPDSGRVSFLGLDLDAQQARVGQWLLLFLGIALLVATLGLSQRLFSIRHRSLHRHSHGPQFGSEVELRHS

Structure (SMILES) | inhibition of angiotensin converting enzyme (ACE)
CC[C@H](C)[C@H](N)C(=O)N1CCC[C@H]1C(=O)N1CCC[C@H]1C(=O)O [IPP, isoleucyl-prolyl-proline] | inhibit
CC(C)[C@H](N)C(=O)N1CCC[C@H]1C(=O)N1CCC[C@H]1C(=O)O [VPP, valyl-prolyl-proline] | inhibit
